Measurements taken from US9963445B2, “Chemical compounds” (SYNGENTA PARTICIPATIONS AG, priority 2013, dated 2018).

Legend:
Format in all cases: in vivo
[1] = test system: Abutilon theophrasti; test: Pre-emergence herbicidal activity, glasshouse pot test; conditions: pre-emergence spray, rate 1000 g/ha, evaluated after 13 days, scale 0-5
Outline: (§1)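 Damage was rated at 13 days from 0 (none) to 5 (total), in a glasshouse kept at 24/16 °C, 14 h light and 65% humidity with watering twice daily. The aqueous spray of active ingredient in 50:50 acetone/water plus 0.5% Tween 20 was applied to soil one day post-sowing, before emergence.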

[2] = test system: Alopecurus myosuroides; test: as above; conditions: pre-emergence spray, rate 1000 g/ha, evaluated after 13 days, scale 0-5
Outline: as §1

[3] = test system: Amaranthus retroflexus; test: as above; conditions: pre-emergence spray, rate 1000 g/ha, evaluated after 13 days, scale 0-5
Outline: as §1

[4] = test system: Echinochloa crus-galli; test: as above; conditions: pre-emergence spray, rate 1000 g/ha, evaluated after 13 days, scale 0-5
Outline: as §1

[5] = test system: Setaria faberi; test: as above; conditions: pre-emergence spray, rate 1000 g/ha, evaluated after 13 days, scale 0-5
Outline: as §1

[6] = test system: zea mays; test: as above; conditions: pre-emergence spray, rate 1000 g/ha, evaluated after 13 days, scale 0-5
Outline: as §1

[7] = test system: Abutilon theophrasti; test: Post-emergence herbicidal activity, glasshouse pot test; parameters: key: 0 = no damage to plant, 5 = total damage to plant; conditions: Application post-emergence, rate 1000 g/ha, evaluated after 13 days
Outline: (§2)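 After 8 days of glasshouse growth at 24/16 °C day/night, potted plants receive a foliar spray of the formulated compound (0.5% Tween 20 in acetone/water). They are then watered twice daily under unchanged conditions, and phytotoxicity is scored 0–5 after 13 days.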

[8] = test system: Alopecurus myosuroides; test: as above; parameters: key: 0 = no damage to plant, 5 = total damage to plant; conditions: Application post-emergence, rate 1000 g/ha, evaluated after 13 days
Outline: as §2

[9] = test system: Amaranthus retroflexus; test: as above; parameters: key: 0 = no damage to plant, 5 = total damage to plant; conditions: Application post-emergence, rate 1000 g/ha, evaluated after 13 days
Outline: as §2

[10] = test system: Echinochloa crus-galli; test: as above; parameters: key: 0 = no damage to plant, 5 = total damage to plant; conditions: Application post-emergence, rate 1000 g/ha, evaluated after 13 days
Outline: as §2

[11] = test system: Setaria faberi; test: as above; parameters: key: 0 = no damage to plant, 5 = total damage to plant; conditions: Application post-emergence, rate 1000 g/ha, evaluated after 13 days
Outline: as §2

[12] = test system: zea mays; test: as above; parameters: key: 0 = no damage to plant, 5 = total damage to plant; conditions: Application post-emergence, rate 1000 g/ha, evaluated after 13 days
Outline: as §2

Row | Structure (SMILES) | ABUTH damage score, application pre-emergence [1] | ALOMY damage score, application pre-emergence [2] | AMARE damage score, application pre-emergence [3] | ECHCG damage score, application pre-emergence [4] | SETFA damage score, application pre-emergence [5] | ZEAMX damage score, application pre-emergence [6] | ABUTH herbicidal damage score [7] | ALOMY herbicidal damage score [8] | AMARE herbicidal damage score [9] | ECHCG herbicidal damage score [10] | SETFA herbicidal damage score [11] | ZEAMX herbicidal damage score [12]
1 | COC1=C(C)C(O)N(c2cc(C(C)(C)F)c(C)nn2)C1=O (stereo not drawn) [BI16] | 5 | 3 | 5 | 4 | 5 | 3 | 5 | 4 | 5 | 5 | 5 | 4
2 | COC1=C(C)C(O)N(c2cc(C(C)(F)F)c(-c3ccc(F)cc3)nn2)C1=O (stereo not drawn) [BI17] | 4 | 4 | 4 | 3 | 4 | 2 | 5 | 4 | 5 | 5 | 5 | 3
3 | CC#Cc1nnc(N2C(=O)C(OC)=C(C)C2O)cc1C(C)(F)F (stereo not drawn) [BI18] | 4 | 3 | 4 | 3 | 3 | 1 | 5 | 3 | 5 | 5 | 4 | 2
4 | C=C(OCC)c1nnc(N2C(=O)C(OC)=C(C)C2O)cc1C(C)(F)F (stereo not drawn) [BI19] | 5 | 3 | 5 | 5 | 3 | 2 | 5 | 4 | 5 | 5 | 4 | 3
5 | COC1=C(C)C(O)N(c2cc(C(C)(F)F)c(-c3ccc(C)c(F)c3)nn2)C1=O (stereo not drawn) [BI20] | 0 | 2 | 3 | 1 | 1 | 1 | 5 | 2 | 5 | 3 | 4 | 1
6 | COC1=C(C)C(O)N(c2cc(C(C)(F)F)c(-c3cccnc3)nn2)C1=O (stereo not drawn) [BI21] | 2 | 2 | 2 | 2 | 3 | 0 | 3 | 4 | 5 | 4 | 4 | 1
7 | COC1=C(C)C(O)N(c2cc(C(C)(F)F)c(Cl)nn2)C1=O (stereo not drawn) [BI22] | 4 | 4 | 5 | 5 | 4 | 3 | 5 | 5 | 5 | 5 | 5 | 3
8 | COC1=C(C)C(O)N(c2cc(C(C)(F)F)c(C#N)nn2)C1=O (stereo not drawn) [BI23] | 4 | 4 | 5 | 4 | 2 | 1 | 4 | 4 | 3 | 4 | 4 | 1
